PubChem BioAssay AID342 (DTP/NCI, 2004)
Where “and” joins values, the source holds several entries; their conditions need not be identical. Identical values can stand only once.

Test system: Swiss mice, Sarcoma 180 sc, mean tumor weight T/C
Test: NCI In Vivo Anticancer Drug Screen. Data for tumor model Sarcoma 180 (subcutaneous) in Swiss mice
Conditions: endpoint: mean tumor weight, higher = larger tumour
How it was run: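 Antitumor activity is assessed in mice with transplantable tumors. Treated (T) and vehicle control (C) groups are compared on survival or tumor size.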

[1] = dose: 10.0 mg/kg/injection, schedule: Q01DX007 (ip), vehicle: saline
[2] = dose: 20.0 mg/kg/injection, schedule: Q01DX007 (ip), vehicle: saline
[3] = dose: 40.0 mg/kg/injection, schedule: Q01DX007 (ip), vehicle: saline
[4] = dose: 50.0 mg/kg/injection, schedule: Q01DX007 (ip), vehicle: carboxymethylcellulose (CMC)
[5] = dose: 62.5 mg/kg/injection, schedule: Q01DX007 (ip), vehicle: saline

`C[C@@H]1C[C@@]2(C)[C@@H](CC[C@@H]3[C@@H]2CC[C@]2(C)[C@@H](O)CC[C@@H]32)CC1=O` was tested, and the T/C (dose: 25.0 mg/kg/injection, schedule: Q#A X014 (oral), vehicle: steriod suspending solution) was 120 % of control, the T/C (dose: 75.0 mg/kg/injection, schedule: Q#A X014 (oral), vehicle: steriod suspending solution) was 75 % of control and the T/C (dose: 187.5 mg/kg/injection, schedule: Q#A X014 (oral), vehicle: steriod suspending solution) was 63 % of control.

`Nc1ncnc2c1ncn2C1OC(COCc2ccccc2)C(OCc2ccccc2)C1OCc1ccccc1` (stereo not given) was tested, and the T/C [1] was 88 % of control, the T/C [2] was 86 % of control and 107 % of control and the T/C [3] was 64 % of control and 87 % of control. The T/C (dose: 160.0 mg/kg/injection, schedule: Q01DX007 (ip), vehicle: saline) was 99 % of control.

For `NNC(=O)NC(=O)NN`, the T/C (dose: 9.5 mg/kg/injection, schedule: Q01DX007 (ip), vehicle: carboxymethylcellulose (CMC)) was 91 % of control, the T/C (dose: 19.0 mg/kg/injection, schedule: Q01DX007 (ip), vehicle: carboxymethylcellulose (CMC)) was 124 % of control and the T/C (dose: 38.0 mg/kg/injection, schedule: Q01DX007 (ip), vehicle: carboxymethylcellulose (CMC)) was 111 % of control. For the same compound, the T/C (dose: 76.0 mg/kg/injection, schedule: Q01DX007 (ip), vehicle: carboxymethylcellulose (CMC)) was 69 % of control.

In the case of `CC(=O)Nc1cc2oc3ccccc3c2cc1[N+](=O)[O-]`, the T/C (dose: 220.0 mg/kg/injection, schedule: Q01DX007 (ip), vehicle: methylcellulose (MC)) is reported as 67 % of control, the T/C (dose: 335.0 mg/kg/injection, schedule: Q01DX007 (ip), vehicle: methylcellulose (MC)) is reported as 67 % of control and the T/C (dose: 400.0 mg/kg/injection, schedule: Q01DX007 (ip), vehicle: methylcellulose (MC)) is reported as 72 % of control. The T/C (dose: 500.0 mg/kg/injection, schedule: Q01DX007 (ip), vehicle: methylcellulose (MC)) was 52 % of control and the T/C (dose: 600.0 mg/kg/injection, schedule: Q01DX007 (ip), vehicle: methylcellulose (MC)) was 77 % of control.

In the case of `O=C(CCBr)N1CCCN(C(=O)CCBr)CC1`, the T/C (dose: 147.0 mg/kg/injection, schedule: Q01DX007 (ip), vehicle: carboxymethylcellulose (CMC)) is reported as 49 % of control and the T/C (dose: 223.0 mg/kg/injection, schedule: Q01DX007 (ip), vehicle: carboxymethylcellulose (CMC)) is reported as 46 % of control.

In the case of `S=C(N=Nc1ccccc1)NNc1ccccc1`, the T/C (dose: 37.5 mg/kg/injection, schedule: Q01DX007 (ip), vehicle: carboxymethylcellulose (CMC)) is reported as 110 % of control and the T/C (dose: 75.0 mg/kg/injection, schedule: Q01DX007 (ip), vehicle: carboxymethylcellulose (CMC)) is reported as 47 % of control.

With `O=c1[nH]cc(C(F)(F)F)c(=O)[nH]1` the T/C (dose: 200.0 mg/kg/injection, schedule: Q01DX007 (ip), vehicle: saline) was 63 % of control and the T/C (dose: 300.0 mg/kg/injection, schedule: Q01DX007 (ip), vehicle: saline) was 73 % of control.

In the case of `O=C1c2ccccc2C(=O)c2c1c(O)c1ccccc1c2O`, the T/C (dose: 100.0 mg/kg/injection, schedule: Q#A X014 (im), vehicle: other) is reported as 87 % of control, the T/C (dose: 100.0 mg/kg/injection, schedule: Q#A X014 (sc), vehicle: other) is reported as 70 % of control and the T/C (dose: 200.0 mg/kg/injection, schedule: Q#A X014 (im), vehicle: other) is reported as 109 % of control. The T/C (dose: 200.0 mg/kg/injection, schedule: Q#A X014 (sc), vehicle: other) was 66 % of control, the T/C (dose: 300.0 mg/kg/injection, schedule: Q#A X014 (im), vehicle: other) was 114 % of control and the T/C (dose: 300.0 mg/kg/injection, schedule: Q#A X014 (sc), vehicle: other) was 64 % of control. The T/C (dose: 400.0 mg/kg/injection, schedule: Q#A X014 (im), vehicle: other) was 90 % of control, the T/C (dose: 400.0 mg/kg/injection, schedule: Q#A X014 (sc), vehicle: other) was 65 % of control and the T/C (dose: 500.0 mg/kg/injection, schedule: Q#A X014 (oral), vehicle: other) was 72 % of control. For the same compound, the T/C (dose: 750.0 mg/kg/injection, schedule: Q#A X014 (oral), vehicle: other) was 69 % of control.

For `CSc1nc(C)c(Br)c(Sc2nc(N)nc3nc[nH]c23)n1`, the T/C (dose: 4.0 mg/kg/injection, schedule: Q01DX007 (ip), vehicle: carboxymethylcellulose (CMC)) was 91 % of control, the T/C (dose: 5.0 mg/kg/injection, schedule: Q01DX007 (ip), vehicle: carboxymethylcellulose (CMC)) was 84 % of control and the T/C (dose: 5.5 mg/kg/injection, schedule: Q#A X014 (ip), vehicle: carboxymethylcellulose (CMC)) was 43 % of control. For the same compound, the T/C (dose: 5.5 mg/kg/injection, schedule: Q#A X014 (ip), vehicle: methylcellulose (MC)) was 24 % of control, the T/C (dose: 6.0 mg/kg/injection, schedule: Q01DX007 (ip), vehicle: carboxymethylcellulose (CMC)) was 90 % of control and the T/C (dose: 6.2 mg/kg/injection, schedule: Q01DX007 (ip), vehicle: carboxymethylcellulose (CMC)) was 77 % of control. For the same compound, the T/C (dose: 7.0 mg/kg/injection, schedule: Q01DX007 (ip), vehicle: carboxymethylcellulose (CMC)) was 66 % of control, the T/C (dose: 8.5 mg/kg/injection, schedule: Q#A X014 (ip), vehicle: carboxymethylcellulose (CMC)) was 33 % of control and the T/C (dose: 8.5 mg/kg/injection, schedule: Q#A X014 (ip), vehicle: methylcellulose (MC)) was 57 % of control. For the same compound, the T/C (dose: 11.0 mg/kg/injection, schedule: Q01DX007 (ip), vehicle: carboxymethylcellulose (CMC)) was 74 % of control, the T/C (dose: 12.5 mg/kg/injection, schedule: Q01DX007 (ip), vehicle: carboxymethylcellulose (CMC)) was 69 % of control and the T/C (dose: 12.5 mg/kg/injection, schedule: Q#A X014 (ip), vehicle: carboxymethylcellulose (CMC)) was 24 % of control. The T/C (dose: 12.5 mg/kg/injection, schedule: Q#A X014 (ip), vehicle: methylcellulose (MC)) was 16 % of control, the T/C (dose: 17.0 mg/kg/injection, schedule: Q01DX007 (ip), vehicle: carboxymethylcellulose (CMC)) was 31 % of control and the T/C (dose: 18.5 mg/kg/injection, schedule: Q#A X014 (ip), vehicle: carboxymethylcellulose (CMC)) was 18 % of control. For the same compound, the T/C (dose: 18.5 mg/kg/injection, schedule: Q#A X014 (ip), vehicle: methylcellulose (MC)) was 7 % of control, the T/C (dose: 25.0 mg/kg/injection, schedule: Q01DX007 (ip), vehicle: carboxymethylcellulose (CMC)) was 20 % of control and the T/C (dose: 37.0 mg/kg/injection, schedule: Q01DX007 (ip), vehicle: carboxymethylcellulose (CMC)) was 22 % of control. For the same compound, the T/C (dose: 40.0 mg/kg/injection, schedule: Q01DX007 (ip), vehicle: carboxymethylcellulose (CMC)) was 52 % of control and the T/C (dose: 60.0 mg/kg/injection, schedule: Q01DX007 (ip), vehicle: carboxymethylcellulose (CMC)) was 46 % of control.

With `CO/[N+]([O-])=C\C(=O)N/C=C/C(=O)O` the T/C [4] was 79 % of control.

With `O=C(O)C(=O)O.[U]` the T/C (dose: 1.5 mg/kg/injection, schedule: Q01DX007 (ip), vehicle: saline) was 85 % of control, the T/C (dose: 3.0 mg/kg/injection, schedule: Q01DX007 (ip), vehicle: saline) was 79 % of control and the T/C (dose: 6.0 mg/kg/injection, schedule: Q01DX007 (ip), vehicle: saline) was 82 % of control. The T/C (dose: 18.5 mg/kg/injection, schedule: Q01DX007 (ip), vehicle: saline) was 32 % of control, the T/C (dose: 27.8 mg/kg/injection, schedule: Q01DX007 (ip), vehicle: saline) was 33 % of control and 42 % of control and the T/C (dose: 41.7 mg/kg/injection, schedule: Q01DX007 (ip), vehicle: saline) was 41 % of control. The T/C [5] was 35 % of control and the T/C (dose: 93.8 mg/kg/injection, schedule: Q01DX007 (ip), vehicle: saline) was 39 % of control.

In the case of `CC(C)[C@]1(O)CC[C@H]2[C@@H]3CCc4cc(O)ccc4[C@H]3CC[C@@]21C`, the T/C (dose: 2.5 mg/kg/injection, schedule: Q01DX007 (sc), vehicle: steriod suspending solution) is reported as 92 % of control, the T/C (dose: 5.0 mg/kg/injection, schedule: Q01DX007 (sc), vehicle: steriod suspending solution) is reported as 60 % of control and the T/C (dose: 10.0 mg/kg/injection, schedule: Q01DX007 (sc), vehicle: steriod suspending solution) is reported as 95 % of control.

In the case of `CCCCCCCCCCCCCC1=C(O)C(=O)C(CC2=C(O)C(=O)C(CCCCCCCCCCCCC)=C(O)C2=O)=C(O)C1=O`, the T/C [4] is reported as 66 % of control and 80 % of control, the T/C (dose: 100.0 mg/kg/injection, schedule: Q01DX007 (ip), vehicle: carboxymethylcellulose (CMC)) is reported as 73 % of control and the T/C (dose: 200.0 mg/kg/injection, schedule: Q01DX007 (ip), vehicle: carboxymethylcellulose (CMC)) is reported as 101 % of control.

`CS(=O)(=O)OCC#CCOS(C)(=O)=O` was tested, and the T/C [1] was 99 % of control, the T/C [2] was 84 % of control and the T/C [3] was 104 % of control.

With `CCCCCCCCCCC(O)CN1CCN(c2ccc(C)cc2)CC1` (stereo not given) the T/C (dose: 110.0 mg/kg/injection, schedule: Q01DX007 (ip), vehicle: olive oil, sesame oil, peanut oil) was 63 % of control, the T/C (dose: 168.0 mg/kg/injection, schedule: Q01DX007 (ip), vehicle: olive oil, sesame oil, peanut oil) was 51 % of control and the T/C (dose: 250.0 mg/kg/injection, schedule: Q01DX007 (ip), vehicle: olive oil, sesame oil, peanut oil) was 77 % of control.

In the case of `Cc1ncc([N+](=O)[O-])n1CCCl`, the T/C [5] is reported as 108 % of control and the T/C (dose: 250.0 mg/kg/injection, schedule: Q01DX007 (ip), vehicle: saline) is reported as 78 % of control.
